Data from PMC8828969, “Arylamine N-Acetyltransferase 1 Activity is Regulated by the Protein Acetylation Status” (Frontiers in Pharmacology, 2022).
Like-named read-outs stand apart in the source and are kept apart here.

Assays:
Sirtuin = Sirtuin activity in inhibitor-treated cells (Sirtuin Activity kit, lysate fluorescence); assay type: cell-based, human
Experimental: (§1) The next day, cells were treated with increasing concentrations, (0–100 µM) of the inhibitor for 48 h. Following incubation, the enzymatic activity of Sirtuin and HDAC proteins was quantified using the Sirtuin Activity kit (MilliporeSigma, St. Louis, MO, United States), according to manufacturer’s instructions. […] Supernatant was recovered ant kept on ice. Samples were normalized to the lowest protein concentration sample using the Bradford protein assay (Bio-Rad, Hercules, CA, United States). Then, 20 µL of diluted cell lysate were transferred into a 96 well plate, the activity reaction mix was prepared as recommended, and the reaction was incubated for 15 min at 37°C.

NAT1b transcript [1] = assay: NAT1b mRNA quantification by qRT-PCR in MDA-MB-231 cells; assay type: cell-based, human; conditions: 48 h
Experimental: (§2) NAT1 mRNA levels were measured as described previously ([Millner et al., 2012]). Primers were designed to recognize only NAT1b expression. Briefly, total RNA was isolated cells lines using the RNeasy Mini kit (Qiagen, Hilden, GER) followed by removal of contaminating DNA by treatment with Turbo DNA-free (Ambion, Austin, TX, United States). cDNA was synthetized using the High-Capacity Reverse transcriptase kit (Life Technologies, Carlsbad, CA, United States) using 1 µg of total RNA in a 20 µL reaction following manufacturer’s instructions.
(§3) MDA-MB-231 or ZR-75-1 cells were plated in 12-well plates, at a density of 2 × 10^5 cells/well and allowed to attach to the plate overnight. […] After 48 h of drug treatment, plates were recovered and the cells were harvested for NAT1 activity assays, NAT1 mRNA and protein expression quantification as described above. For the siRNA transfection experiments, after 72 h of transfection, cells were harvested and processed as described above for the cells treated with inhibitors.

NAT1 [2] = assay: NAT1 catalytic activity (PABA N-acetylation, HPLC) in lysate of treated MDA-MB-231 cells; assay type: cell-based, human; conditions: for Ki: MDA-MB-231 cells treated 48 h, read-out: Ki, decrease of NAT1 catalytic activity (PABA N-acetylation); for lowest concentration that significantly decreased NAT1 catalytic activity / lowest concentration that significantly increased NAT1 N-acetylation of PABA: MDA-MB-231 cells, 48 h
Experimental: (§4) In vitro NAT1 enzymatic activity was quantified towards p-aminobenzoic acid (PABA). N-acetyl-PABA was quantified by High Performance Liquid Chromatography (HPLC) as previously described ([Hein et al., 2006]; [Stepp et al., 2018]). Briefly, cells were scaped from the plate and washed in ice-cold Phosphate Buffered Saline (PBS) and lysed in 20 mM sodium phosphate pH 7.4, 1 mM ethylenediaminetetraacetic acid (EDTA), 0.2% triton X-100, 1 mM dithiothreitol (DTT), 100 µM phenylmethanesulfonyl fluoride (PMSF), 1 μg/ml aprotinin, and 2 µM pepstatin A (MilliporeSigma, St. Louis, MO, United States). Cell lysate was centrifuged at 15,000 × g for 10 min, supernatant was recovered, and protein concentration was quantified as mentioned before. NAT1 enzymatic assay reactions containing 50 µL of suitable cell lysate, 300 µM PABA, and AcCoA (1 mM), were incubated at 37°C for 10 min. Reactions were terminated by the addition of 10 µL of 1 M acetic acid, then proteins were precipitated by centrifugation (15,000 × g for 20 min in the cold room) and supernatant was transferred to HPLC vials and injected onto a LiChrospher 100 RP-18 (125 mm × 4 mm; 5 µm) reverse phase column. Reactants and products were eluted with an Agilent 1260 Infinity II system (Agilent Technologies, Santa Clara, CA, United States). Separation of N-acetyl-PABA was achieved using a gradient of 96:4 of 20 mM sodium perchlorate pH 2.5: acetonitrile (ACN) to 88:12 20 mM sodium perchlorate:ACN over 3 min. Absorbance was recorded at 280 nm. Four independent measurements were performed in duplicate for each cell condition and cell line.
as §3

NAT1 [3] = assay: NAT1 catalytic activity (PABA N-acetylation, HPLC) in lysate of treated ZR-75-1 cells; assay type: cell-based, human; conditions: for Ki: ZR-75-1 cells treated 48 h, read-out: Ki, decrease of NAT1 catalytic activity (PABA N-acetylation); for lowest concentration that significantly decreased NAT1 catalytic activity / lowest concentration that significantly upregulated NAT1 catalytic activity: ZR-75-1 cells, 48 h
Experimental: as §4, §3

KDAC proteins = assay: KDAC (Sirtuin / HDAC) activity, both breast cancer cell lines (discussion summary); assay type: cell-based, human; conditions: MDA-MB-231 and ZR-75-1 cell lines
NAT1 [4] = assay: NAT1 acetylation status (acetyl-lysine immunoprecipitation, AcNAT1/NAT1) in ZR-75-1 cells; assay type: cell-based, human; conditions: 48 h; for acetylation of NAT1 lysine residues, effect in words: vs vehicle; for NAT1 acetylation status, fold increase: vs vehicle control
Experimental: (§5) In order to assess the acetylation status of NAT1 protein, MDA-MB-231(6 × 10^5) and ZR-75-1 (3 × 10^6) cells were seeded onto 100 mm cell culture dishes and allowed to attach overnight. […] After 48-h drug treatment or 72-h siRNA transfection, cells were collected and lysed following the protocol of Signal-Seeker Acetyl-Lysine Detection kit (Citoskeleton, Denver, CO, United States). Briefly, after the incubation period concluded, cells were washed twice with PBS and lysed in ice-cold lysis buffer, 20 mM Tris-HCl (pH 7.4), 5 mM EDTA, 150 mM NaCl, 0.5% Triton X-100, 10 mM sodium butyrate and protease/phosphatase inhibitors cocktail. Cell lysates were incubated on ice for 20 min and isolated by centrifugation at 16,000 × g for 20 min. Supernatants were recovered and protein concentration was measured as described before. 150 µg of lysate was used for the IP; 1/10 of the sample was kept as input control. Thereafter, Acetyl Lysine Affinity Beads were added to the samples and incubated at 4°C for 2 h. Beads were washed three times with the provided wash buffer and the immunoprecipitated proteins were eluted and denatured with 2 × Laemmli buffer and boiled for 5 min. Protein samples were then separated by SDS-PAGE for 1 h at 150 V. Proteins were then transferred to PVDF membranes (Bio-Rad, Hercules, CA, United States) for 2 h at 100 V and blocked for 30 min in 1×fish gelatin (Biotium Inc., Fremont, CA, United States. After blocking, membranes were incubated with rabbit monoclonal anti-NAT1 antibody (ab109114, Abcam, Cambridge, United Kingdom) and mouse monoclonal anti-β-actin, as endogenous control (A2228, Sigma-Aldrich, St. Louis, MO, United States) overnight at 4°C with gentle agitation. The next day, the membranes were washed with TBST and incubated with secondary antibodies IRDye® 800 CW goat anti-rabbit and 680RD goat anti-mouse (LI-COR Biosciences, Lincoln, NE, United States) at room temperature for 1 hour. Finally, plates were washed with TBST and scanned using an Odyssey imaging system (LI-COR Biosciences, Lincoln, NE, United States). After detection of NAT1, the membranes were re-probed for acetyl-lysine-HRP detection using the antibody provided in the kit. Chemiluminescent detection was captured using a Fotodyne imaging system (Fotodyne Inc., Hartland, WI, United States). Densitometric analysis on the immunoblots was performed using ImageJ ([Schneider et al., 2012]) software or IMAGE STUDIO Lite software (LI-COR Biosciences, Lincoln, NE, United States), which enables quantitative analysis of blotting signals. NAT1 and acetyl-lysine levels were normalized to β-actin.

NAT1 [5] = assay: NAT1 acetylation status (acetyl-lysine immunoprecipitation, AcNAT1/NAT1) in MDA-MB-231 cells; assay type: cell-based, human; conditions: 48 h, vs vehicle
Experimental: as §5

NAT1b transcript [6] = assay: NAT1b mRNA quantification by qRT-PCR in ZR-75-1 cells; assay type: cell-based, human; conditions: 48 h
Experimental: as §2, §3

HDAC [7] = conditions: MDA-MB-231 cells, vs vehicle control; for lowest concentration that significantly decreased HDAC deacetylase activity: 48 h
Experimental: as §1

NAT1b transcript [8] = test system: NAT1b transcript; design: method as in Paterson et al., 2011; conditions: after treatment with TSA; ref Paterson et al., 2011; cited from earlier work
NAT1 [9] = test system: NAT1; design: method as in Paterson et al., 2011; conditions: after treatment with TSA; ref Paterson et al., 2011; cited from earlier work
HDAC [10] = conditions: ZR-75-1 cells, vs vehicle control
NAT1 [11] = test system: NAT1; design: method as in Butcher et al., 2020; conditions: ref Butcher et al., 2020; cited from earlier work
[12] = MDA-MB-231 cells, 48 h, vs vehicle control
[13] = MDA-MB-231 cells, 48 h treatment, vs vehicle control; read-out: IC50, Sirtuin deacetylase activity
[14] = ZR-75-1 cells, 48 h, vs vehicle control
[15] = ZR-75-1 cells, 48 h treatment, vs vehicle control; read-out: IC50, Sirtuin deacetylase activity
[16] = ZR-75-1 cells, 100 µM, vs vehicle
[17] = read-out: IC50, HDAC deacetylase activity, 48 h treatment

| IC50 (Sirtuin; [13]) [µM] | IC50 (Sirtuin; [15]) [µM] | SMILES | lowest concentration that significantly decreased Sirtuin activity (Sirtuin; [12]) [µM] | lowest concentration that significantly inhibited Sirtuin deacetylase activity (Sirtuin; [14]) [µM] | NAT1b transcript expression, effect in words (NAT1b transcript [1]; 100 µM, vs vehicle) | Ki (NAT1 [2]) [µM] | lowest concentration that significantly decreased NAT1 catalytic activity (NAT1 [2]) [µM] | Ki (NAT1 [3]) [µM] | lowest concentration that significantly decreased NAT1 catalytic activity (NAT1 [3]) [µM] | dose producing inhibition of KDAC enzymatic activity (KDAC proteins) [µM] | acetylation of NAT1 lysine residues, effect in words (NAT1 [4]; 100 µM) | acetylated lysine residues of NAT1, effect in words (NAT1 [5]; 100 µM) | NAT1b transcript expression, effect in words (NAT1b transcript [6]; [16]) | lowest concentration that significantly decreased HDAC deacetylase activity (HDAC [7]) [µM] | lowest concentration that significantly increased NAT1 N-acetylation of PABA (NAT1 [2]) [µM] | lowest concentration that significantly upregulated NAT1 catalytic activity (NAT1 [3]) [µM] | other results |
| --- | --- | --- | --- | --- | --- | --- | --- | --- | --- | --- | --- | --- | --- | --- | --- | --- | --- |
| 50.1 | 27.6 | N#CC(=Cc1ccc(-c2cc(Cl)ccc2Cl)o1)C(=O)Nc1cccc2ncccc12 [AGK2, 2-cyano-3-[5-(2,5-dichlorophenyl)-2-furanyl]-N-5-quinolinyl-2-propenamide] | 10 | 10 | significantly decreased | 10.8 | 1 | 0.55 | 1 | 10 | increased | increased |  |  |  |  |  |
|  |  | NC(=O)C1CCCc2c1[nH]c1ccc(Cl)cc21 (stereo not drawn) [EX527, 6-chloro-2,3,4,9-tetrahydro-1H-carbazole-1-carboxamide] | 1 | 1 | significantly decreased | 7.03 | 0.1 | 0.39 | 0.01 | 1 |  | increased | significant decrease |  |  |  | IC50 (Sirtuin; read-out: IC50, Sirtuin deacetylase activity; MDA-MB-231 cells, 48 h treatment, vs vehicle control): 40.6 µM; IC50 (Sirtuin; read-out: IC50, Sirtuin deacetylase activity; ZR-75-1 cells, 48 h treatment, vs vehicle control): 11.8 µM |
|  |  | O=C(CCCCCCC(=O)Nc1ccccc1)NO [SAHA, Vorinostat] |  |  |  |  |  |  |  |  |  |  |  | 10 | 10 | 10 | NAT1b transcript expression, effect in words (NAT1b transcript [1]; 10 and 100 µM, vs vehicle): more NAT1b transcript expression |
| 61.7 | 35.8 | CC(NC(=O)c1ccccc1N=Cc1c(O)ccc2ccccc12)c1ccccc1 (stereo not drawn) [Sirtinol, 2-[[(2-hydroxy-1-naphthalenyl)methylene]amino]-N-(1-phenylethyl)-benzamide] | 100 | 10 | significantly decreased | 21.9 | 1 | 0.02 | 0.1 | 10 | increased | increased | significant decrease |  |  |  | acetylation of NAT1 lysine residues, effect in words (NAT1 [4]; 10 µM): increased |
|  |  | CC(/C=C/C(=O)NO)=C\[C@@H](C)C(=O)c1ccc(N(C)C)cc1 [TSA, Trichostatin A] |  |  |  |  |  |  |  | 0.1 |  |  |  | 1 | 1 | 1 | NAT1b transcription (NAT1b transcript [8]): upregulation; IC50 (HDAC [7]; [17]): 13.5 µM; NAT1b message expression, fold increase (NAT1b transcript [6]; ZR-75-1 cells, 1 µM): 6 fold; NAT1b transcript expression, fold increase (NAT1b transcript [6]; [16]): 9 fold; NAT1b transcript expression, effect in words (NAT1b transcript [6]; ZR-75-1 cells, 1, 10 and 100 µM, vs vehicle): more robust induction; lowest dose with significant upregulation of NAT1b message expression (NAT1b transcript [6]; ZR-75-1 cells): 1 µM; NAT1b transcription, fold increase (NAT1b transcript [1]; 0.01 µM): 3 fold; NAT1b transcript expression, fold increase (NAT1b transcript [1]; 10 µM, vs vehicle): over 10 fold; lowest dose with significant increase of NAT1b transcription (NAT1b transcript [1]): 0.01 µM; NAT1 acetylation status, fold increase (NAT1 [4]; 10 µM): 1.8 fold; NAT1 acetylation status, fold increase (NAT1 [4]; 100 µM): 2.4 fold; NAT1 catalytic activity (NAT1 [9]): increase; NAT1 acetylation, fold increase (NAT1 [5]; 10 µM): 1.6 fold; NAT1 acetylation, fold increase (NAT1 [5]; 100 µM): 2.1 fold; lowest concentration that significantly inhibited HDAC enzymatic activity (HDAC [10]; 48 h): 0.1 µM; IC50 (HDAC [10]; [17]): 6.4 µM |
|  |  | NC(=O)c1cccnc1 [nicotinamide] |  |  |  |  |  |  |  |  |  |  |  |  |  |  | acetylation of NAT1 (NAT1 [11]): enhanced |
